Usually IC50 stands for the midpoint of a concentration-inhibition curve. Higher therefore signals a need for much substance.

We go through 31 molecules from patent publication US10294236B2, “Compounds as rearranged during transfection (RET) inhibitors” (GLAXOSMITHKLINE INTELLECTUAL PROPERTY DEVELOPMENT LIMITED, priority 2014, dated 2019).

Structures can show the parent of a compound that is named as a salt. Some results are limits rather than exact numbers.

The assay addresses T1, Human RET kinase cytoplasmic domain (Homo sapiens, UniProt P07949).
T1 construct: made in house
T1 sequence (P07949 658-1114): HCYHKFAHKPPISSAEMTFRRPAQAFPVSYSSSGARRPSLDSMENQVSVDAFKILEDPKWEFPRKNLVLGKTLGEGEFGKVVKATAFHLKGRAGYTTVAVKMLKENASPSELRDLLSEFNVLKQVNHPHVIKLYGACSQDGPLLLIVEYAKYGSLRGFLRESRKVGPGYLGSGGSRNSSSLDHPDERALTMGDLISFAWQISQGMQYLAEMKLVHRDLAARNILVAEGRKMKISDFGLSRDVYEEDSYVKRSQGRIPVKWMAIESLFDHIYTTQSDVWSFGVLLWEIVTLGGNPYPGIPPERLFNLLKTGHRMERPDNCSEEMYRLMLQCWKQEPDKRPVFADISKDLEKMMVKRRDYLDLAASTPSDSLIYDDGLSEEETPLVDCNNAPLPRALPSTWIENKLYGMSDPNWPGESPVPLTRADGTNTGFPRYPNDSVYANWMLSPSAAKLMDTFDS
The assay is described as follows: RET kinase enzymatic assay. It counts as biochemical. Summed up: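 GST-RET, 0.2 nM in 2× enzyme mix (HEPES, CHAPS, BSA, DTT), preincubated with inhibitor 30 min at 23 °C. Reaction for 1 h at 23 °C after adding 2× substrate mix: 20 μM ATP, 20 mM MgCl2, 1 μM biotinylated peptide. Single wells per concentration; IC50 from sigmoidal dose-response fit.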
As to `CCOc1cc(-c2ccc(NC(=O)Nc3ccc(C(C)O)c(C(F)(F)F)c3)c(F)c2)c[nH]c1=O` (stereo not shown) [Example 116], the IC50 was < 100 nM. In the case of `CCOc1cc(-c2ccc(NC(=O)Nc3ccc(OCC(C)O)c(C(F)(F)F)c3)c(F)c2)c[nH]c1=O` (stereo not shown) [Example 145], the 50% inhibitory concentration (IC50) is < 100 nM. As to `Cc1cc(-c2ccc(=O)[nH]c2)ccc1NC(=O)Nc1ccc(OC2(C)COC2)c(C(F)(F)F)c1` [Example 137], the IC50 is < 100 nM. Take `CCOc1cc(-c2ccc(NC(=O)Nc3ccc(OC(C)(C)C)c(C(F)(F)F)c3)cc2)c[nH]c1=O` [Example 79]: the IC50 is < 100 nM. As for `CCOc1cc(-c2cnc(NC(=O)Nc3cc(C(C)(C)C(F)(F)F)on3)c(C)n2)c[nH]c1=O` [Example 16, 1-(5-(5-Ethoxy-6-oxo-1,6-dihydropyridin-3-yl)-3-methylpyrazin-2-yl)-3-(5-(1,1,1-trifluoro-2-methylpropan-2-yl)isoxazol-3-yl)urea], the IC50 is < 100 nM. Regarding `CCOc1cc(-c2ccc(NC(=O)Nc3ccc(OC4(C)COC4)c(C(F)F)c3)c(F)c2)c[nH]c1=O` [Example 93], the IC50 is < 100 nM. The figure for `CCOc1cc(-c2ccc(NC(=O)Nc3ccc(C(C)C#N)c(C(F)(F)F)c3)c(F)c2)c[nH]c1=O` (stereo not shown) [Example 127] is < 100 nM; for `CCOc1cc(=O)[nH]cc1-c1ccc(NC(=O)Nc2cc(C(F)(F)F)ccc2F)c(F)c1` [Example 128] it is < 100 nM. `CCOc1cc(-c2ccc(NC(=O)Nc3ccc(F)c(C(F)(F)F)c3)c(F)c2)c[nH]c1=O` [Example 156]: the IC50 was < 100 nM. The figure for `CCOCc1ccc(NC(=O)Nc2ccc(-c3c[nH]c(=O)c(OCC)c3)cc2F)cc1C(F)(F)F` [Example 151] is < 100 nM; for `CCOc1cc(-c2ccc(NC(=O)Nc3ccc(OC4(C)COC4)c(C(F)(F)F)c3)cc2)c[nH]c1=O` [Example 140] it is < 100 nM. Turning to `CCOc1cc(-c2ncc(NC(=O)Nc3ccc(CN(C)C)c(C(F)(F)F)c3)c(C)n2)c[nH]c1=O` [Example 58, 1-(4-((Dimethylamino)methyl)-3-(trifluoromethyl)phenyl)-3-(2-(5-ethoxy-6-oxo-1,6-dihydropyridin-3-yl)-4-methylpyrimidin-5-yl)urea], the half-inhibitory concentration (IC50) is < 100 nM. `CC1(Oc2ccc(NC(=O)Nc3ccc(-c4c[nH]c(=O)c(F)c4)cc3F)cc2C(F)(F)F)COC1` [Example 36, 1-(2-Fluoro-4-(5-fluoro-6-oxo-1,6-dihydropyridin-3-yl)phenyl)-3-(4-((3-methyloxetan-3-yl)oxy)-3-(trifluoromethyl)phenyl)urea]: the IC50 was < 100 nM. On to `CCOc1cc(-c2ccc(NC(=O)Nc3cnc(OC(C)C)c(C(F)(F)F)c3)c(F)c2)c[nH]c1=O` [Example 92], for which the IC50 was < 100 nM. As to `CCOc1cc(-c2cnc(NC(=O)Nc3ccc(OC4(C)COC4)c(C(F)(F)F)c3)c(C)c2)c[nH]c1=O` [Example 105], the IC50 is < 100 nM. Consider `CCOc1cc(-c2ccc(NC(=O)Nc3ccc(CO)c(C(F)(F)F)c3)c(F)c2)c[nH]c1=O` [Example 132], for which the IC50 was < 100 nM. `CCOc1cc(-c2ccc(NC(=O)Nc3ccc(OC4(C)CCN(C)C4)c(C(F)(F)F)c3)c(F)c2)c[nH]c1=O` (stereo not shown) [Example 144]: the IC50 was < 100 nM.

On to `CCOc1cc(=O)[nH]cc1-c1ccc(NC(=O)Nc2ccc(OC3(C)COC3)c(C(F)(F)F)c2)c(F)c1` [Example 18, 1-(4-(4-Ethoxy-6-oxo-1,6-dihydropyridin-3-yl)-2-fluorophenyl)-3-(4-((3-methyloxetan-3-yl)oxy)-3-(trifluoromethyl)phenyl)urea], for which the IC50 was < 100 nM. As for `CCOc1cc(-c2ncc(NC(=O)Nc3ccc(C(C)(C)CN)c(C(F)(F)F)c3)c(C)n2)c[nH]c1=O` [Example 70, 1-(4-(1-Amino-2-methylpropan-2-yl)-3-(trifluoromethyl)phenyl)-3-(2-(5-ethoxy-6-oxo-1,6-dihydropyridin-3-yl)-4-methylpyrimidin-5-yl)urea dihydrochloride], the IC50 is < 100 nM.

`CCOc1cc(=O)[nH]cc1-c1ncc(NC(=O)Nc2cccc(C(F)(F)F)c2)c(C)n1` [Example 38, 1-(2-(4-Ethoxy-6-oxo-1,6-dihydropyridin-3-yl)-4-methylpyrimidin-5-yl)-3-(3-(trifluoromethyl)phenyl)urea]: the IC50 was < 100 nM. The figure for `CCOc1cc(-c2ncc(NC(=O)Nc3ccc(C(C)N)c(C(F)(F)F)c3)c(C)n2)c[nH]c1=O` (stereo not shown) [Example 175, 1-(4-(1-Aminoethyl)-3-(trifluoromethyl)phenyl)-3-(2-(5-ethoxy-6-oxo-1,6-dihydropyridin-3-yl)-4-methylpyrimidin-5-yl)urea] is < 100 nM; for `CCOc1cc(-c2ncc(NC(=O)Nc3cc(C(F)(F)F)c(CN4CCN(CCO)CC4)cc3F)c(C)n2)c[nH]c1=O` [Example 171, 1-(2-(5-Ethoxy-6-oxo-1,6-dihydropyridin-3-yl)-4-methylpyrimidin-5-yl)-3-(2-fluoro-4-((4-(2-hydroxyethyl)piperazin-1-yl)methyl)-5-(trifluoromethyl)phenyl)urea] it is < 100 nM; for `CCOc1cc(=O)[nH]cc1-c1ncc(NC(=O)Nc2ccc(CC(C)(C)N)c(C(F)(F)F)c2)c(C)n1` [Example 186, 1-(4-(2-Amino-2-methylpropyl)-3-(trifluoromethyl)phenyl)-3-(2-(4-ethoxy-6-oxo-1,6-dihydropyridin-3-yl)-4-methylpyrimidin-5-yl)urea] it is < 100 nM. `CCOc1cc(-c2ccc(NC(=O)Nc3ccc(OC(C)(C)CF)c(C(F)(F)F)c3)c(F)c2)c[nH]c1=O` [Example 139]: the IC50 is < 100 nM. Consider `CCOc1cc(=O)[nH]cc1-c1ncc(NC(=O)Nc2ccc(CC3(C)COC3)c(C(F)(F)F)c2)c(C)n1` [Example 12, 1-(2-(4-Ethoxy-6-oxo-1,6-dihydropyridin-3-yl)-4-methylpyrimidin-5-yl)-3-(4-((3-methyloxetan-3-yl)methyl)-3-(trifluoromethyl)phenyl)urea], for which the IC50 is < 100 nM.

Consider `CCOc1cc(=O)[nH]cc1-c1ncc(NC(=O)Nc2ccc(C(C)(C)O)c(C(F)(F)F)c2)c(C)n1` [Example 51, 1-(2-(4-Ethoxy-6-oxo-1,6-dihydropyridin-3-yl)-4-methylpyrimidin-5-yl)-3-(4-(2-hydroxypropan-2-yl)-3-(trifluoromethyl)phenyl)urea], for which the IC50 was < 100 nM. On to `CCOc1cc(-c2ccc(NC(=O)Nc3ccc(C4(CO)CC4)c(C(F)(F)F)c3)c(F)c2)c[nH]c1=O` [Example 77], for which the IC50 is < 100 nM. The figure for `CCOc1cc(-c2ncc(NC(=O)Nc3ccc(C(C)(C)C#N)c(C(F)(F)F)c3)c(C)n2)c[nH]c1=O` [Example 23, 1-(4-(2-Cyanopropan-2-yl)-3-(trifluoromethyl)phenyl)-3-(2-(5-ethoxy-6-oxo-1,6-dihydropyridin-3-yl)-4-methylpyrimidin-5-yl)urea] is < 100 nM; for `CCOc1cc(=O)[nH]cc1-c1ncc(NC(=O)Nc2ccc(CN(C)C)c(C(F)(F)F)c2)c(C)n1` [Example 55, 1-(4-((Dimethylamino)methyl)-3-(trifluoromethyl)phenyl)-3-(2-(4-ethoxy-6-oxo-1,6-dihydropyridin-3-yl)-4-methylpyrimidin-5-yl)urea] it is < 100 nM; for `CCOc1ccc(NC(=O)Nc2ccc(-c3c[nH]c(=O)c4ccoc34)cc2F)cc1C(F)(F)F` [Example 98] it is < 100 nM.

On to `CCOc1ccc(NC(=O)Nc2ccc(-c3ccc(=O)n(CC)c3)cc2F)cc1C(F)(F)F` [Example 113], for which the IC50 was in the range of 100 to 500 nM.
